According to patent publication US20220162169A1, “6-OXO-1,6-DIHYDROPYRIDAZINE PRODRUG DERIVATIVE, PREPARATION METHOD THEREFOR, AND APPLICATION THEREOF IN MEDICINE” (JIANGSU HENGRUI MEDICINE CO., LTD., priority 2019, published 2022):
≈ marks a conversion by molar mass, not a printed value.

Columns and labels:
[1] = Solubility in PBS solution (pH 7.4) at room temperature; format: physicochemical; conditions: PBS solution (pH 7.4), aqueous buffer, kinetic from dmso stock; PBS pH 7.4, room temperature, 24 hours shaking, 1% DMSO, average of two measurements; read-out: Solubility in PBS pH7.4
Method: Test Example 1. Solubility of the Compound of the Present Disclosure in PBS Solution (pH 7.4) at Room Temperature
2.1 Formulation of the PBS solution (pH 7.4): 0.57 g of NaH2PO42.H2O, 5.55 g of Na2HPO4.12H2O and 6.48 g of NaCl were weighed, followed by the addition of ultra-pure water. The pH was adjusted to 7.4±0.05 with 1 M NaOH or 1 M HCl. Water was added until the volume reached 1 L. The PBS solution was stored in a refrigerator at 4° C. (the storage life was 6 months).
2.2 Formulation of the solution of the compound in PBS 7.4: An appropriate amount of the test compound was weighed, and dissolved in DMSO or a mixed solution of DMSO:acetonitrile:ethanol (1:1:1) to obtain a 10 mM stock solution of the test compound. 10 μL of the stock solution of the test compound and 990 μL of the PBS solution (pH 7.4) were precisely measured and placed in a 2 mL sample vial and mixed well, and the DMSO concentration of the final solution was 1% (v/v). This solution was formulated in duplicate, shaken on a plate bed at room temperature for 24 hours, and centrifuged at 5000 rpm for 20 minutes. The supernatant was analyzed by the liquid chromatograph.
2.3 Formulation of the reference solution: 10 μL of the stock solution of the test sample (concentration: 10 mM, dissolved in DMSO) and 990 μL of an organic mixed solvent (usually DMSO:acetonitrile:ethanol=1:1:1) were precisely measured and placed in a 2 mL sample vial, and mixed well to obtain a clear 100 μM sample solution. The solution was filtered through a 0.45 μm organic phase microporous filter membrane, and the filtrate was analyzed by the liquid chromatograph.
Solubility (μM)=peak area of the sample/peak area of the reference*concentration of the reference (μM)*sample solution dilution factor
The average of two measurements was used as the final solubility.

[2] = Pharmacokinetics assay in SD rats after intragastric administration, plasma LC/MS/MS; format: in vivo; conditions: for Detection of the administered prodrug compound itself in rat plasma: after intragastric administration, LC/MS/MS; for In vivo conversion of the prodrug into its metabolite: intragastric administration
Method: Test Example 2. Pharmacokinetics Assay of the Compounds of the Present Disclosure in Rats
SD rats were used as test animals. The drug concentration in plasma at different time points was determined by LC/MS/MS method after oral administration of the compounds of Example 2, Example 6 and Example 7 to SD rats. The pharmacokinetic behavior of the compounds of the present disclosure was studied and evaluated in SD rats.
Forty SD rats (half male and half female, equally divided into ten groups) were purchased from Shanghai Jiesijie Laboratory Animal Co., LTD. (Certificate No.: SCXK(Shanghai) 2013-0006).
An appropriate amount of the compound of Example 2 was weighed, followed by the addition of 5% of DMSO, 5% of tween 80 and 90% of normal saline successively to obtain a colorless, clear and transparent solution.
An appropriate amount of the compound of Example 2 was weighed, followed by the addition of 0.5% sodium carboxymethyl cellulose (containing 0.5% tween 80) to obtain a white homogeneous suspension.
An appropriate amount of the compound of Example 6 was weighed, and added to 200 mM (5% PVPK30+5% TPGS) Na2HPO4 solution (pH=9) to obtain a homogeneous suspension.
An appropriate amount of the compound of Example 7 was weighed, and added to 200 mM (5% PVPK30+5% TPGS) Na2HPO4 solution (pH=9) to obtain a homogeneous suspension.
After an overnight fast, the SD rats were intragastrically administered the test compounds. Regarding to the compound of Example 2 (formulation: 5% of DMSO, 5% of tween 80 and 90% of normal saline), the administration dose was 2 mg/kg, the administration volume was 10 mL/kg, and the administration concentration was 0.2 mg/mL. Regarding to the compound of Example 2 (formulation: 0.5% sodium carboxymethyl cellulose (containing 0.5% tween 80)), the administration dose was 10, 30, 100 mg/kg, the administration volume was 10 mL/kg, and the administration concentration was 1, 3, 10 mg/mL. Regarding to the compound of Example 6, the administration dose was 100, 300, 900 mg/kg, the administration volume was 10 mL/kg, and the administration concentration was 10, 30, 90 mg/mL. Regarding to the compound of Example 7, the administration dose was 10, 30, 100 mg/kg, the administration volume was 10 mL/kg, and the administration concentration was 1, 3, 10 mg/mL.
After an overnight fast, the SD rats were intragastrically administered the test compounds. 0.2 ml of blood was taken from the orbit before the administration and at 0.5, 1.0, 2.0, 4.0, 6.0, 8.0, 11.0 and 24.0 hours after the administration. The samples were stored in heparinized tubes, and centrifuged for 10 minutes at 3500 rpm to separate the blood plasma. The plasma samples were stored at −20° C. The SD rats were fed 2 hours after the administration.
The content of the test compound in the plasma of SD rats after administration of the test compound at different concentrations was determined: 25 μL of SD rat plasma at each time point after the administration was taken, followed by the addition of 50 μL of the internal standard camptothecin solution (100 ng/mL) and 200 μL of acetonitrile. The resulting solution was vortex-mixed for 5 minutes, and centrifuged for 10 minutes (3700 rpm). 3.0 μL of the supernatant was taken from the plasma samples of the compound of Example 2 (the group at the administration dose of 2 mg/kg) for LC/MS/MS analysis. 2.0 μL of the supernatant was taken from the plasma samples of the compound of Example 2 (the group at the administration dose of 10, 30, or 100 mg/kg) for LC/MS/MS analysis. 0.2 μL of the supernatant was taken from the plasma samples of the compound of Example 6 for LC/MS/MS analysis. 1 μL of the supernatant was taken from the plasma samples of the compound of Example 7 for LC/MS/MS analysis. […]

[3] = biological target: T1, NaV1.8 ion channel (Homo sapiens, UniProt Q9Y5Y9); assay: Manual patch clamp, inhibitory activity on NaV1.8 stably expressed on HEK293 cells; format: cell-based; conditions: HEK293 cells stably expressing NaV1.8, manual patch clamp, resting protocol (clamped at -80 mV, depolarized to 10 mV), 1 μM TTX; read-out: IC50 on inhibiting the Nav1.8 channel activity
T1 construct: expressed in transfected cells
Excerpt: Test Example 3. Determination of the Inhibitory Activity of the Compounds of the Present Disclosure on NaV1.8
The purpose of the experiment is to investigate the effect of the compounds on NaV1.8 ion channel in an in vitro experiment, wherein the NaV1.8 ion channel is stably expressed on HEK293 cells. After the NaV1.8 current becomes stable, the NaV1.8 currents before and after the administration of the compound are compared so as to obtain the effect of the compound on the NaV1.8 ion channel.
Except for NaOH and KOH used for acid titration and base titration, all the compounds used for formulating the extracellular fluid and intracellular fluid were purchased from Sigma (St. Louis, Mo.). Extracellular fluid (mM): NaCl, 137; KCl, 4; CaCl2, 1.8; MgCl2, 1; HEPES, 10; glucose, 10; pH 7.4 (NaOH titration). Intracellular fluid (mM): aspartic acid, 140; MgCl2, 2; EGTA, 11; HEPES, 10; pH 7.2 (CsOH titration). All solutions of test compound and control compound contained 1 μM TTX.
The test compound was dissolved in dimethyl sulfoxide (DMSO) at a stock concentration of 9 mM. The stock solution of the test compound was dissolved in the extracellular fluid on the day of the test and formulated into the required concentration.
1) The compound was formulated into solutions with specified concentrations, the solutions were added to the pipelines respectively in order from low to high concentration, and the pipelines were marked.
2) The cell was transferred to the perfusion tank. A positive pressure was applied to the electrode. The tip of the electrode touched the cell. The three-way valve of the air extracting device was adjusted to a three-way state. […]
The cell was clamped at −80 mV. […] The maximum current caused by the square wave was measured. […] After the response became stable, the blocking intensity was calculated. […]
The inhibitory activity of the compounds of the present disclosure on NaV1.8 was determined by the above test, and the resulting IC50 values are shown in Table 3.

T1 sequence (Q9Y5Y9 whole entry): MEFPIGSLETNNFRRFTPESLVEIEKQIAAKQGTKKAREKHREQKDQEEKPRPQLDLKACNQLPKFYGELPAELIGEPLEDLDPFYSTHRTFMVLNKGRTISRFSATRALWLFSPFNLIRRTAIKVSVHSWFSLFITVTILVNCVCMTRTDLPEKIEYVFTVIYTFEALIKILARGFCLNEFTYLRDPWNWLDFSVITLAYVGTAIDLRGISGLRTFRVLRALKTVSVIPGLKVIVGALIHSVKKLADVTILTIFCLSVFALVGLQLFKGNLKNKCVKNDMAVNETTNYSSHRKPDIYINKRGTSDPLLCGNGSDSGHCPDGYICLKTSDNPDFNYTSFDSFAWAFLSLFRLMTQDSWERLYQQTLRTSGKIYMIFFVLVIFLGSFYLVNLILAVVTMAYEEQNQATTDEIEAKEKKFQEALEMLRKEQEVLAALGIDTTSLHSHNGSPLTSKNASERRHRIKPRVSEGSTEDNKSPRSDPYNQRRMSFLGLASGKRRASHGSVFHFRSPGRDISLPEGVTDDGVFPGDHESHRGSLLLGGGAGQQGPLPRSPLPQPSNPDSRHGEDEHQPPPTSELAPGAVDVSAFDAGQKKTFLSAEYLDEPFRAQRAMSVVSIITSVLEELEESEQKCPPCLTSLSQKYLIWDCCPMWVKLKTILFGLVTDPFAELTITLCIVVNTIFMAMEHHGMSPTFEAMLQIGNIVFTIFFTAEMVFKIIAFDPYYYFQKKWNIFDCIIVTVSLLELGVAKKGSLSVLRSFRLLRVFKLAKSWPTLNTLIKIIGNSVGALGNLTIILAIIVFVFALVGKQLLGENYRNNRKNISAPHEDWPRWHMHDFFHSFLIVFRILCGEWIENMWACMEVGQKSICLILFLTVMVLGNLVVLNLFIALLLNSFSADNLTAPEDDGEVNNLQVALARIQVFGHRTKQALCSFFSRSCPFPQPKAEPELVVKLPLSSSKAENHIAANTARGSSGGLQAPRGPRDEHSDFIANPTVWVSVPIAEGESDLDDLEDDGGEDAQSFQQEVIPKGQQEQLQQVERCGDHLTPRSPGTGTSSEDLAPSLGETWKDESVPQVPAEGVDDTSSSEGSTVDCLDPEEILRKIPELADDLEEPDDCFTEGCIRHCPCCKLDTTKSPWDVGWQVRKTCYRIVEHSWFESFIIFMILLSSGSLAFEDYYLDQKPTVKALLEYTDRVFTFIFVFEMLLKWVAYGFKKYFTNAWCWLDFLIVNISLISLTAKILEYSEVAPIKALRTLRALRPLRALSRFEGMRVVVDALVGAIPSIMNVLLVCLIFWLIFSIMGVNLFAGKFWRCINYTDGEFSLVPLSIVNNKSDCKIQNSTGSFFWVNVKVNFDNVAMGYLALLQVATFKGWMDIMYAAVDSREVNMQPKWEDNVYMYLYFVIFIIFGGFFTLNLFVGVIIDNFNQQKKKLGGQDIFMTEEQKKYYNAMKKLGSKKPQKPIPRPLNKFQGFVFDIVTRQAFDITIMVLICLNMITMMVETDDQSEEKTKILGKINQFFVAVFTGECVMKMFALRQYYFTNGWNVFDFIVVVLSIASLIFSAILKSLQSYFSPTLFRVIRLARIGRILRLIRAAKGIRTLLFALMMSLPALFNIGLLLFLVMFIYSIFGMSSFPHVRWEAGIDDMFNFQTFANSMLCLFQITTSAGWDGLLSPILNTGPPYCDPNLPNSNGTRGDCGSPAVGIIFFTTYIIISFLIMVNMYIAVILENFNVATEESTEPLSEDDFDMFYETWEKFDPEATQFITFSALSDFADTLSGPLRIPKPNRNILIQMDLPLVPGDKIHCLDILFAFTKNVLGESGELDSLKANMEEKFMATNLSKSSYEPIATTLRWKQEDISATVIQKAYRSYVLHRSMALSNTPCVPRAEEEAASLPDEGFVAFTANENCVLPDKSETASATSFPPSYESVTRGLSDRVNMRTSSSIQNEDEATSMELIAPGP

Structure (SMILES)	solubility at 24 h [1] [µM]	Detection of the administered prodrug compound itself in rat plasma [2]	In vivo conversion of the prodrug into its metabolite [2]	IC50 [3] [µM]
[2H]C([2H])([2H])Oc1cc(F)ccc1Oc1cc(C(F)(F)F)c(Cl)cc1C(=O)Nc1cnn(COC(=O)CCC(=O)O)c(=O)c1 [Example 7, 4-((4-(5-Chloro-2-(4-fluoro-2-(methoxy-d3)phenoxy)-4-(trifluoromethyl)benzamido)-6-oxopyridazin-1(6H)-yl)methoxy)-4-oxobutanoic acid]	34.5 (≈ 20.4 µg/mL)	not detected	converted into compound 7d in vivo	0.0145
COc1cc(F)ccc1Oc1cc(C(F)(F)F)c(Cl)cc1C(=O)Nc1cnn(COC(=O)CCC(=O)O)c(=O)c1 [Example 6, 4-((4-(5-Chloro-2-(4-fluoro-2-methoxyphenoxy)-4-(trifluoromethyl)benzamido)-6-oxopyridazin-1(6H)-yl)methoxy)-4-oxobutanoic acid]	44.9 (≈ 26.4 µg/mL)	not detected	converted into compound 6c in vivo	0.0039
Cc1cc(F)ccc1Oc1cc(C(F)(F)F)c(Cl)cc1C(=O)Nc1cnn(COC(=O)CCC(=O)O)c(=O)c1 [Example 2, 4-((4-(5-Chloro-2-(4-fluoro-2-methylphenoxy)-4-(trifluoromethyl)benzamido)-6-oxopyridazin-1(6H)-yl)methoxy)-4-oxobutanoic acid]	57.4 (≈ 32.8 µg/mL)	not detected	converted into compound 1h in vivo	0.0376
